Laboratory results from patent publication US20170217982A1, “Compound isolated from Pseudolysimachion rotundum var. subintegrum, the composition comprising the same for treating allergic disease, inflammatory disease, asthma or chronic obstructive pulmonary disease and the use thereof” (YUNGJIN PHARMACEUTICAL CO., LTD, priority 2014, published 2017).

Test system: asthma-induced animal model (OVA)
Experiment: Anti-asthma activity in OVA-sensitized/challenged mouse model
Type: in vivo, BALB/c mice
Conditions: OVA asthma mice
Protocol: In order to determine the anti-asthma activity of test sample in asthma-induced animal model, following test was performed by the method disclosed in the literature (Shin, I. S. et al., Food Chem. Toxicol., 2013, 62, 506-513)
Specific pathogen-free female BALB/c mice (about 20 g), aged 6 weeks, which were routinely screened serologically for relevant respiratory pathogens, were purchased from Samtako Co. (Seoul, Korea) and acclimated with the experimental environment under the condition controlling the temperature of 22±2° C., and relative humidity of 55±15%, at light/dark cycle for 1 week prior to experiment.
Briefly, mice were sensitized by intraperitoneal injection of 20 μg OVA (Ovalbumin; A5503, Sigma, St. Louis, Mo.), which was emulsified in 2 mg aluminum hydroxide (A8222, Sigma-Aldrich, MO. USA) in 200 μl of PBS buffer (pH 7.4), biweekly. The mice were challenged through the airways with OVA (1% in PBS) for 30 min using an ultrasonic nebulizer (NE-U12; Omron Corp., Tokyo, Japan) from the 21st day to 23rd day after the initial sensitization. 24 hrs after the antigen treatment, the airway hyperresponsiveness was determined and the mice were sacrificed 48 hrs after the last challenge. The mice were sacrificed with an overdose of pentobarbital (50 mg/kg, Entobal®, Hanil, Korea) 48 h after the last challenge, and a tracheotomy was performed. After 1.4 ml of physiological saline solution (PBS) was instilled into the lungs, bronchoalveolar lavage fluid (BALF) was obtained by aspiration three times via tracheal cannulation.
The groups were divided into several groups, i.e., (a) normal control group(NC): the groups treated or not-treated with OVA; (b) asthma-induced group(OVA): the groups treated with OVA to induce asthma; and (c) comparative group: the groups treated with positive control group (M30, montelukast; 30 mg/kg, PO, Sigma-Aldrich Co. Ltd., SML-0101+OVA) and (d) test sample group: the groups treated with KS534 compound (30 mg/kg, PO, Sigma-Aldrich Co. Ltd., SML-0101+OVA).
The test group consists of 7 mice for each group and various concentrations of the test sample were orally administrated to the mice from 21st to 23rd day after ^1st OVA treatment.
All the result obtained from various experiments was recorded as mean±SD (standard deviation), and the comparison between each group was determined using by one-way ANOVA test using by SPSS 10.0 program. The statistic significance between each group was determined according to Dunnett's multiple comparison tests as a post-hoc test). The result was expressed as P values: <0.05 (*) as statistically significant. […]
BALF was loaded onto a slide and centrifuged to fix the cells onto the slide using a Cellspin machine (Cyto12.5+clip5, Hanil Science Industrial, Korea). The cells were stained by Diff-Quick® Stain reagents (Sysmex, Cat No. 38721, Switzerland) according to the manufacturer's instructions and the number of inflammatory cells in each sample was counted by microscope (×400).
In order to confirm the inhibition effect of test samples on the level of Th2 cytokines (IL-4, IL-5 and IL-13) in bronchoalveolar lavage fluid (BALF), the level of Th2 cytokines (IL-4, IL-5 and IL-13) in bronchoalveolar lavage fluid (BALF) was determined using by ELISA kit (VersaMax, Molecular Devices, USA) specifically reacting with each cytokine according to the manufacture's manual. […]

## O=C(CO)O[C@@H]1O[C@@H]2C[C@H]3[C@H](OC(=O)c4ccc(O)c(O)c4)[C@@H](Cl)[C@@](O)(CO2)[C@@H]13 [KS-534, (3R,5S,5aS,6R,7S,8R,8aS)-8-chloro-8a-hydroxy-5-(2-hydroxyacetoxy) hexahydro-1H-3,6-methanocyclopenta[e][1,3]dioxepin-7-yl3,4-dihydroxybenzoate]
30 mg/kg PO, ELISA, vs OVA group (FIG. 6)
  level of Th2 cytokines (IL-4, IL-5 and IL-13) in BALF: significantly reduced
30 mg/kg PO, ELISA, vs OVA group (FIG. 7)
  level of IgE and OVA-specific IgE in blood serum: significantly reduced
30 mg/kg PO, vs OVA group (FIG. 8)
  invasion of the inflamed cells in lung tissue (H&E histology): significantly reduced
30 mg/kg PO, vs OVA group (FIG. 9)
  mucosal secretion from the goblet cell of bronchial epithelial cells in lung tissue (PAS): significantly reduced
oral, vs OVA group (FIG. 5)
  total number of eosinophil and inflammatory cells in BALF: effectively inhibited
